US10000525B2, “Non-hormonal steroid modulators of NF-κB for treatment of disease” (ReveraGen Biopharma, Inc, priority 2010, dated 2018)

What was measured:
[1] = system: mdx mice; assay: mdx mouse model: histological evaluation (H&E) of gastrocnemius muscle; assay type: in vivo; conditions: for degeneration of skeletal muscle (H&E) / inflammation of skeletal muscle (H&E) / regenerating muscle fibers (H&E): 20 and 40 mg/kg/day per oral in feed, 3 months, in comparison to untreated and prednisolone treated mdx mice
Protocol: (§1) Separate groups (n=12-14) of mdx mice were treated with prednisolone (5 mg/kg/day; per oral in feed), Example 1 (20 and 40 mg/kg/day; per oral in feed) and Example 2 (20 and 40 mg/kg/day; per oral in feed) for 3 months. All mice underwent 30 min biweekly treadmill exercise during the treatment duration to unmask the mild disease phenotype of mdx mouse model.
Hematoxylin and Eosin staining of gastrocnemius muscle of untreated mdx mice show significant degeneration and inflammation. […] Continuous administration of prednisolone appeared to increase degeneration and decrease in regeneration of dystrophic skeletal muscle.

[2] = system: mdx mice; assay: In vivo mdx mouse model of dystrophy: body weight and muscle mass; conditions: 5 mg/kg/day per oral in feed, at 33.8 weeks age
Protocol: as §1

[3] = system: extensor digitorum longus (EDL) muscle; assay: mdx mouse model: in vitro force contractions of EDL muscle; assay type: in vivo; conditions: mdx mice, prednisolone 5 mg/kg/day per oral in feed, 3 months
Protocol: as §1
The distal tendon of the extensor digitorum longus (EDL) muscle was tied securely to the lever arm of a servomotor/force transducer (model 305B, Aurora Scientific, Richmond Hill, ON, Canada) and the proximal tendon to a tissue clamp. Muscles were stimulated between two platinum electrodes. […] With the muscle held at Lo using stimulation frequencies of 30, 50, 80, 100, 120 and 150 Hz, the maximum isometric tetanic force (Po) developed during a 300 ms train of stimulation pulses was recorded for the EDL muscle. The muscle length was then measured with calipers and after removal of the muscle from the bath the mass of the muscle was determined. For each muscle, the optimum fiber length (Lf) was calculated by multiplying Lo by a previously determined Lf/Lo ratio of 0.45. […]

[4] = continuous administration, 5 mg/kg/day per oral in feed

Structure (SMILES) | degeneration of skeletal muscle (H&E) [1] | inflammation of skeletal muscle (H&E) [1] | regenerating muscle fibers (H&E) [1] | body weight versus untreated mice [2] | degeneration of dystrophic skeletal muscle (H&E) [1, 4] | regeneration of dystrophic skeletal muscle (H&E) [1, 4] | specific force of EDL muscle, versus untreated group [3]
C[C@]12C=CC(=O)C=C1CCC1C2=CC[C@@]2(C)C1CC[C@]2(O)C(=O)CO (stereo partly drawn) [Example 2, (10S,13S,17R)-17-hydroxy-17-(2-hydroxyacetyl)-10,13-dimethyl-6,7,8,10,12,13,14,15,16,17-decahydro-3H-cyclopenta[a]phenanthren-3-one] | significant decrease | significant decrease | increase | – | – | – | –
C[C@]12CCC(=O)C=C1CCC1C2=CC[C@@]2(C)C1CC[C@]2(O)C(=O)CO (stereo partly drawn) [Example 1, (10S,13S,17R)-17-hydroxy-17-(2-hydroxyacetyl)-10,13-dimethyl-6,7,8,10,12,13,14,15,16,17-decahydro-1H-cyclopenta[a]phenanthren-3(2H)-one] | significant decrease | significant decrease | increase | – | – | – | –
C[C@]12C=CC(=O)C=C1CC[C@@H]1[C@@H]2[C@@H](O)C[C@@]2(C)[C@H]1CC[C@]2(O)C(=O)CO [Prednisolone, reference compound] | – | – | – | significantly lower body weight | increase | decrease | no statistically significant (P<0.05) difference
